From US10285382B2 (priority 2017, dated 2019)
Values joined by “and” are separate entries in the source; they are usually repeats but may differ in a detail not shown here. Equal entries are not always repeated. Where two headings read alike, the source gives them in different places.

Test system: eggs
[1] = Day 7 Delta: Day 7 DHP+ versus Day 7 DHP−
[2] = Delta: Avg. Trtd versus Avg. Untrd, all storage times
[3] = an additional day (five days) of DHP gas treatment, vs untreated
[4] = eggs treated four days, vs untreated
[5] = seven day storage, vs untreated
[6] = with DHP gas, Mean / Avg. Trtd of 22 replicates, storage 4 to 7 days
[7] = with DHP gas, egg storage 4 days, single replicates of 90 eggs
[8] = with DHP gas, egg storage 5 days, single replicates of 90 eggs
[9] = with DHP gas, egg storage 6 days, single replicates of 90 eggs
[10] = with DHP gas, egg storage 7 days, single replicates of 90 eggs
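Note: paired egg replicates incubated to hatching under standard commercial conditions, then each category scored at hatch as percent of eggs in the replicate.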

OO [DHP, dry hydrogen peroxide]
Total Hatchability (Day 7 DHP+, summary over replicates stored 7 days): 94.44% | % Infertile, delta [1]: 0.00% | Chick A, delta [1]: −1.17% | Chick B, delta [1]: 1.17% | Chick Weight, delta [1]: 1.10 g | Cont, delta [1]: −0.56% | Crack, delta [1]: 0.00% | Cull dead cks, delta [1]: 0.56% | Dead pip, delta [1]: 0.00% | Early dead, delta [1]: −2.78% | Fertile Hatchability, delta [1]: 0.56% | Late dead, delta [1]: 0.55% | Live pip, delta [1]: 1.11% | Mid dead, delta [1]: 0.56% | Total Hatchability, delta [1]: 0.56% | % Infertile, delta [2]: 1.00% | Chick A, delta [2]: 0.23% | Chick B, delta [2]: −0.23% | Chick Weight, delta [2]: 0.77 g | Cont, delta [2]: −0.05% | Crack, delta [2]: 0.05% | Cull dead cks, delta [2]: −0.10% | Dead pip, delta [2]: −0.30% | Early dead, delta [2]: −1.70% | Fertile Hatchability, delta [2]: 2.45% | Late dead, delta [2]: −0.97% | Live pip, delta [2]: 0.35% | Mid dead, delta [2]: 0.45% | Total Hatchability, delta [2]: 1.16% | increase in fertile hatchability [3]: 3.2% | increase in total hatchability [3]: 1.3% | increased weight [3]: 0.85 grams | DHP gas treated eggs observed to be contaminated (at day 7): none | decrease in number of early deaths (death during incubation, vs untreated): about 1.7% | change in fertile hatchability [4]: 0.12% | change in total hatchability [4]: −0.64% | increased weight [4]: 0.89 g | increase of fertile hatchability [5]: 0.56% | increase of total hatchability [5]: 0.56% | increased weight [5]: 1.10 grams | increase of fertile hatchability (six days, vs untreated): 4.67% | increase of total hatchability (six days, vs untreated): 2.96% | increased weight (six days, vs untreated): 0.49 grams | mid cycle deaths (vs untreated): decreased | number of live pip eggs (vs untreated): increases | improvement in number of A grade chicks (vs untreated eggs): 0.23% | increase of average chick weight (vs untreated eggs, on-site storage 4 to 7 days at about 20° C.): 0.77 grams | increase of average chick weight (vs untreated eggs, on-site storage 4 to 7 days, listed as DHP gas): 1.7% and 1.8% | % Infertile [6]: 2.73% | Chick A [6]: 97.34% | Chick B [6]: 2.66% | Chick Weight [6]: 44.46 g | Cont [6]: 0.00% | Crack [6]: 0.15% | Cull dead cks [6]: 0.05% | Dead pip [6]: 0.05% | Early dead [6]: 2.78% | Fertile Hatchability [6]: 93.93% | Late dead [6]: 1.67% | Live pip [6]: 0.61% | Mid dead [6]: 0.61% | Total Hatchability [6]: 91.36% | Cont [7]: 0.00% | Crack [7]: 0.00% (5×) and 1.11% and 2.22% | Cull dead [7]: 0.00% | Dead pip [7]: 0.00% (6×) and 1.11% | Live pip [7]: 1.11% (2×) and 0.00% (4×) and 4.44% | Mid dead [7]: 0.00% (6×) and 1.11% | Cont [8]: 0.00% | Crack [8]: 0.00% | Cull dead [8]: 0.00% | Dead pip [8]: 0.00% | Early dead [8]: 2.22% (2×) and 1.11% (3×) and 3.33% | Late dead [8]: 0.00% (3×) and 2.22% (3×) | Live pip [8]: 0.00% (4×) and 1.11% and 2.22% | Mid dead [8]: 0.00% (2×) and 1.11% (3×) and 2.22% | Cont [9]: 0.00% | Crack [9]: 0.00% | Cull dead [9]: 0.00% | Dead pip [9]: 0.00% | Early dead [9]: 2.22% (5×) and 3.33% and 4.44% | Live pip [9]: 0.00% (6×) and 1.11% | Mid dead [9]: 1.11% (3×) and 0.00% (3×) and 2.22% | % Infer [10]: 1.11% and 0.00% | Chick A [10]: 96.47% and 97.65% | Chick B [10]: 3.53% and 2.35% | Chick Weight [10]: 44.94 g and 44.41 g | Cont [10]: 0.00% | Crack [10]: 0.00% | Cull dead [10]: 1.11% and 0.00% | Dead pip [10]: 0.00% | Early dead [10]: 1.11% | Fertile Hatchblty [10]: 95.51% and 94.44% | Late dead [10]: 2.22% and 1.11% | Live pip [10]: 0.00% and 2.22% | Mid dead [10]: 0.00% and 1.11% | Total Hatchblty [10]: 94.44%
